Assay results taken from US20240287138A1, “CYCLIC PEPTIDES FOR INHIBITING TNF RECEPTOR 1 ACTIVITY” (Merck Sharp & Dohme LLC, priority 2023, published 2024).
Read-outs that look alike come from different tables or passages of the source. Numbered stars: 1 amine (or outer) side, 2 acyl side, 3 side chain; on linkers, the order of the positions; unused ones are H or OH. Bridge positions count the residues as written; N and C are the ends. Square brackets hold non-standard residues; d marks the D form. Peptide text beside a SMILES is read from it. * marks the point of attachment. Trp(βS-Me,7-OMe) = COc1cccc2c([C@H](C)[C@H](N)C(=O)O)c[nH]c12; Trp(1-CH2COOH) = N[C@@H](Cc1cn(CC(=O)O)c2ccccc12)C(=O)O; X32 = NC(=O)c1ccc([C@@H](O)C(N[*:1])C(=O)[*:2])cc1; X12 = C[C@@H](c1ccc(O)cc1)[C@H](N[*:1])C(=O)[*:2]; Trp(7-CN) = N#Cc1cccc2c(C[C@H](N)C(=O)O)c[nH]c12; Trp(7-Cl) = N[C@@H](Cc1c[nH]c2c(Cl)cccc12)C(=O)O; Phe(4-CONH2) = NC(=O)c1ccc(C[C@H](N)C(=O)O)cc1; Phe(4-COOH) = N[C@@H](Cc1ccc(C(=O)O)cc1)C(=O)O; X25 = O=C(O)c1ccc(C[C@H](N[*:1])C(=O)[*:2])cn1; Trp(7-aza) = N[C@@H](Cc1c[nH]c2ncccc12)C(=O)O; X18 = O=C([C@@H]1C=C[C@H](N[*:1])C1)[*:2]; dPro(4S-NH2) = N[C@@H]1CN[C@@H](C(=O)O)C1; Pip(5R-OH) = O=C(O)[C@@H]1CC[C@@H](O)CN1; X1 = O=C([C@@H]1CC[C@H](N[*:1])C1)[*:2]; Pip(4-aza) = O=C(O)[C@@H]1CNCCN1; hPhe = N[C@@H](CCc1ccccc1)C(=O)O; 4Pal = N[C@@H](Cc1ccncc1)C(=O)O; NMeE = CN[C@@H](CCC(=O)O)C(=O)O; dHyp = O=C(O)[C@H]1C[C@H](O)CN1; Lys(Me) = CNCCCC[C@H](N)C(=O)O; αMeS = C[C@](N)(CO)C(=O)O; Carboxymethyl = O=C(O)C*; NMeA = CN[C@@H](C)C(=O)O; Nle = CCCC[C@H](N)C(=O)O; Sar = CNCC(=O)O

Tests used:
human TNFR2 ECD protein = molecular target: T1, human TNFR2 ECD protein (Homo sapiens, UniProt P20333); assay: SPR off-target binding (selectivity) to human TNFR2 ECD
T1 construct: HRV 3C protease cleavage site (C); 6His (C, cleaved yes); made in house; host or cells: Sf21 insect cells (baculovirus), secreted
T1 sequence (P20333 23-257): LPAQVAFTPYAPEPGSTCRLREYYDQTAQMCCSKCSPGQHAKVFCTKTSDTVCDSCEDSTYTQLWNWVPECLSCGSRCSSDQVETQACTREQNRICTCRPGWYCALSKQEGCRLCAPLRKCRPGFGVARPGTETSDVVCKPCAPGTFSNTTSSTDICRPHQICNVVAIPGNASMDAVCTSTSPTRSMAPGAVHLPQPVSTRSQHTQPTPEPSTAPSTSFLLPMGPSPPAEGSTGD
Protocol: (§1) B. Procedure for Binding Affinity and Selectivity measured by SPR
(§2) Affinity and selectivity for hTNFR1 and TNFR2 was determined using SPR. Human TNFR1 or TNFR2 genes (extracellular domain only) were synthesized with a C-terminal Avi-tag, HRV 3C protease cleavage site followed by a 6His-tag for affinity purification. The final gene product was cloned into pBAC™-1 vector (Millipore Sigma) for expression testing in insect cells. Constructs were transfected into Sf21 cells for baculovirus generation followed by protein expression analysis in Sf21 and Tni cell lines. Large scale expression in Sf21 cells was performed using baculovirus infected insect cells (BIICs) infected at a MOI=2.0 grown for 72 h. Target proteins secreted into the media were harvested via centrifugation and concentrated using diafiltration. TNFR was purified by immobilized metal ion affinity chromatography (IMAC) using a Ni-Sepharose HisTrap™ column (Cytiva™). Isolated TNFR had His tag removed using HRV 3C protease followed by additional purification using Ni-NTA chromatography. Biotinylation was performed on Ni-NTA flow-through fractions concentrated to 45 μM and treated with BirA ligase (1:100, μg/μg ratio) in 50 mM Tris pH 7.5, 150 mM NaCl, 50 μM biotin, 10 mM magnesium acetate, 10 mM ATP at 4° C. for 20 h. Final purification of biotin-TNFR and buffer exchange into 20 mM HEPES pH 7.5, 150 mM NaCl was performed using a HiLoad® Superdex® 200 26/60 column (Cytiva™). Highly purified protein was aliquoted and stored at −80° C.
(§3) The SPR assay uses a Cytiva™ 8K or 8K+ biosensor instrument to measure the kinetics of peptide analytes binding to captured human TNFR1 extracellular domain (ECD) protein; peptide analytes are also evaluated for any off-target binding to human TNFR2 ECD protein in parallel. Recombinant human TNFR1 ECD and human TNFR2 ECD proteins, biotinylated via engineered C-terminal avi-tags, are immobilized to a regenerable streptavidin biosensor chip surface (Cytiva™ Biotin CAPture kit, Series S; cat. #28920234). Peptide analytes binding to immobilized human TNFR1 ECD protein and their subsequent dissociation are conducted in a buffer of 10 mM HEPES pH 7.4, 150 mM NaCl, 3 mM EDTA, 0.05% P20,2% DMSO under laminar flow conditions and measured in response units (RU), which are directly proportional to the accumulated mass on the surface of the biosensor chip; the biosensor chip surface is regenerated via Cytiva™ proprietary methods between the evaluation of each peptide analyte. […] The SPR assay determines the association and dissociation rate constants, kon and koff, for each peptide analyte and, from these values, calculates the binding affinity, […] reported in Table 2.

[1] = molecular target: T2, human TNFR1 extracellular domain (ECD) protein (Homo sapiens, UniProt P19438); assay: SPR binding affinity to captured human TNFR1 ECD
T2 construct: HRV 3C protease cleavage site (C); 6His (C, cleaved yes); made in house; host or cells: Sf21 insect cells (baculovirus), secreted
T2 sequence (P19438 30-211): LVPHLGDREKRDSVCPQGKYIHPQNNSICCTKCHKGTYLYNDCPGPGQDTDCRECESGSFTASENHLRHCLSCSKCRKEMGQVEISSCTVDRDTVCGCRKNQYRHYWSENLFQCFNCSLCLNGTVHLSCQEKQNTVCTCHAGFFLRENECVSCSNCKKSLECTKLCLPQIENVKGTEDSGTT
Protocol: as §1, §2, §3

[2] = molecular target: T3, TNFα-induced NF-κB signal transduction pathway (TNFR1 signaling) in THP-1 cells (Homo sapiens, UniProt P19438); assay: THP-1 Lucia NF-κB reporter cell assay, inhibition of TNFα-induced NF-κB signaling; format: cell-based; details: THP-1 NF-κB Lucia reporter cells, 10 ng/mL TNFα, 16-18 h, secreted luciferase; read-out: THP-1 IC50
T3 sequence (P19438 30-455): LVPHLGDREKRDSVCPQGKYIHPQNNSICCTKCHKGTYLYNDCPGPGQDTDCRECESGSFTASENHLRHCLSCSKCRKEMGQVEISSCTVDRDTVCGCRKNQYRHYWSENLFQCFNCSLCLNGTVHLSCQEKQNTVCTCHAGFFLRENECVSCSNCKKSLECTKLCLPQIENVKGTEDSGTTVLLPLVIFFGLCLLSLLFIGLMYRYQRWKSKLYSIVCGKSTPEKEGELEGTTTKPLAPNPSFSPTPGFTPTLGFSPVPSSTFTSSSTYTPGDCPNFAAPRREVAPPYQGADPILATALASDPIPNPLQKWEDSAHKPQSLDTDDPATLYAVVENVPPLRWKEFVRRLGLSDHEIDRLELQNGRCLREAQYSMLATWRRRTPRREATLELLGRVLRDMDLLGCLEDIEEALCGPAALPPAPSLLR
In short: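 Macrocyclic peptides were preincubated 1 h at 37 °C with THP-1 NF-κB-Lucia reporter cells (20,000 cells/well) in antibiotic-free RPMI 1640/10% FBS, then stimulated with 10 ng/mL human TNFα overnight (16-18 h). Secreted luciferase in supernatant was read by luminescence; IC50 from 4-parameter logistic fits.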

[3] = biotinylated human TNFR2 ECD on streptavidin chip, read-out: SPR hTNFR2 KD
[4] = biotinylated human TNFR1 ECD on streptavidin chip, from kon and koff, read-out: SPR hTNFR1 KD

SMILES | Kd (human TNFR2 ECD protein) [nM] | Kd [1] [nM] | IC50 [2] [nM] | Kd (human TNFR2 ECD protein; [3]) [nM] | Kd [1, 4] [nM]
CCCC[C@@H]1NC(=O)[C@@H]2CC[C@@H](C2)NC(=O)[C@H]([C@@H](C)c2c[nH]c3c(OC)cccc23)NC(=O)CN(C)C(=O)[C@H](Cc2ccc(O)cc2)NC(=O)[C@H](Cc2ccc(C(N)=O)cc2)NC(=O)[C@](C)(CO)NC(=O)[C@H](Cc2c[nH]c3c(Cl)cccc23)NC(=O)[C@H](Cc2ccc(OCC(=O)O)cc2)NC(=O)[C@H](CC(N)=O)NC(=O)[C@H](CCC(=O)O)N(C)C(=O)[C@H](Cc2c[nH]c3ccccc23)NC(=O)[C@@H]2CC[C@@H](O)CN2C(=O)[C@H](Cc2ccncc2)NC1=O [SEQ ID NO. 44] (cyclo([4Pal][Pip(5R-OH)]W[NMeE]NY(Carboxymethyl)[Trp(7-Cl)][αMeS][Phe(4-CONH2)]Y[Sar][Trp(βS-Me,7-OMe)][X1][Nle])) | > 1000 | 0.16 | 0.5 | – | –
CCCC[C@@H]1NC(=O)CSC[C@@H](C(N)=O)NC(=O)[C@H]([C@@H](C)c2c[nH]c3c(OC)cccc23)NC(=O)CN(C)C(=O)[C@H](Cc2ccc(O)cc2)NC(=O)[C@H](Cc2ccc(C(=O)O)cc2)NC(=O)[C@](C)(CO)NC(=O)[C@H](Cc2c[nH]c3c(Cl)cccc23)NC(=O)[C@H](Cc2ccncc2)NC(=O)[C@H](CC(N)=O)NC(=O)[C@H](CCC(=O)O)N(C)C(=O)[C@H](Cc2c[nH]c3ncccc23)NC(=O)[C@H](CO)NC(=O)[C@H]([C@@H](C)c2ccc(O)cc2)NC1=O [SEQ ID NO. 46] ({CH2CO}-[Nle][X12]S[Trp(7-aza)][NMeE]N[4Pal][Trp(7-Cl)][αMeS][Phe(4-COOH)]Y[Sar][Trp(βS-Me,7-OMe)]C-NH2; thioether N-14) | > 1000 | 0.07 | 3 | – | –
CCCC[C@@H]1NC(=O)[C@@H]2CC[C@@H](C2)NC(=O)[C@H]([C@@H](C)c2c[nH]c3c(OC)cccc23)NC(=O)CN(C)C(=O)[C@H](Cc2ccc(C(=O)O)cc2)NC(=O)[C@H](Cc2ccc(C(N)=O)cc2)NC(=O)[C@](C)(CO)NC(=O)[C@H](Cc2c[nH]c3c(Cl)cccc23)NC(=O)[C@H](Cc2ccc(C(=O)O)nc2)NC(=O)[C@H](CC(N)=O)NC(=O)[C@H]2C[C@H](O)CN2C(=O)[C@H](Cc2c[nH]c3ncccc23)NC(=O)[C@@H]2CC[C@@H](O)CN2C(=O)[C@H](Cc2ccncc2)NC1=O [SEQ ID NO. 57] (cyclo([4Pal][Pip(5R-OH)][Trp(7-aza)][dHyp]N[X25][Trp(7-Cl)][αMeS][Phe(4-CONH2)][Phe(4-COOH)][Sar][Trp(βS-Me,7-OMe)][X1][Nle])) | > 1000 | 0.09 | 0.8 | – | –
CCCC[C@@H]1NC(=O)CSC[C@@H](C(N)=O)NC(=O)[C@H]([C@@H](C)c2c[nH]c3c(OC)cccc23)NC(=O)CN(C)C(=O)[C@H](Cc2ccc(O)cc2)NC(=O)[C@H](Cc2ccc(C(=O)O)cc2)NC(=O)[C@](C)(CO)NC(=O)[C@H](Cc2c[nH]c3c(Cl)cccc23)NC(=O)[C@H](Cc2ccncc2)NC(=O)[C@H](CC(N)=O)NC(=O)[C@H](CCC(=O)O)N(C)C(=O)[C@H](Cc2c[nH]c3ncccc23)NC(=O)[C@@H]2CNCCN2C(=O)[C@H](Cc2ccncc2)NC1=O [SEQ ID NO. 68] ({CH2CO}-[Nle][4Pal][Pip(4-aza)][Trp(7-aza)][NMeE]N[4Pal][Trp(7-Cl)][αMeS][Phe(4-COOH)]Y[Sar][Trp(βS-Me,7-OMe)]C-NH2; thioether N-14) | – | – | 3 | > 1000 | 0.55
C[C@H]1C(=O)N[C@@H](CC(N)=O)C(=O)N[C@@H](Cc2ccncc2)C(=O)N[C@@H](Cc2c[nH]c3ccccc23)C(=O)N[C@@](C)(CO)C(=O)N[C@@H](Cc2ccc(C(=O)O)cc2)C(=O)N[C@@H](Cc2ccc(O)cc2)C(=O)N(C)CC(=O)N[C@@H](Cc2c[nH]c3ccccc23)C(=O)N[C@H]2C=C[C@H](C2)C(=O)N[C@@H](CCc2ccccc2)C(=O)N[C@@H](Cc2ccncc2)C(=O)N[C@@H](CO)C(=O)N[C@@H](Cc2c[nH]c3ccccc23)C(=O)N1C [SEQ ID NO. 73] (cyclo([4Pal]SW[NMeA]N[4Pal]W[αMeS][Phe(4-COOH)]Y[Sar]W[X18][hPhe])) | > 1000 | 0.9 | 5.8 | – | –
CNCCCC[C@@H]1NC(=O)[C@@H]2CC[C@@H](C2)NC(=O)[C@H]([C@@H](C)c2c[nH]c3c(OC)cccc23)NC(=O)CN(C)C(=O)[C@H](Cc2ccc(O)cc2)NC(=O)[C@H](Cc2ccc(C(N)=O)cc2)NC(=O)[C@](C)(CO)NC(=O)[C@H](Cc2c[nH]c3c(Cl)cccc23)NC(=O)[C@H](Cc2ccncc2)NC(=O)[C@H](CC(N)=O)NC(=O)[C@H](CCC(=O)O)N(C)C(=O)[C@H](Cc2c[nH]c3ccccc23)NC(=O)[C@@H]2CC[C@@H](O)CN2C(=O)[C@H](Cc2ccncc2)NC1=O [SEQ ID NO. 86] (cyclo([4Pal][Trp(7-Cl)][αMeS][Phe(4-CONH2)]Y[Sar][Trp(βS-Me,7-OMe)][X1][Lys(Me)][4Pal][Pip(5R-OH)]W[NMeE]N)) | > 1000 | 0.08 | 0.5 | – | –
CCCC[C@@H]1NC(=O)[C@@H]2CC[C@@H](C2)NC(=O)[C@H]([C@@H](C)c2c[nH]c3c(OC)cccc23)NC(=O)CN(C)C(=O)C([C@H](O)c2ccc(C(N)=O)cc2)NC(=O)[C@H](Cc2ccc(C(N)=O)cc2)NC(=O)[C@](C)(CO)NC(=O)[C@H](Cc2c[nH]c3c(C#N)cccc23)NC(=O)[C@H](Cc2ccc(C(=O)O)cc2)NC(=O)[C@H](CC(N)=O)NC(=O)[C@H]2C[C@H](N)CN2C(=O)[C@H](Cc2cn(CC(=O)O)c3ccccc23)NC(=O)[C@@H]2CC[C@@H](O)CN2C(=O)[C@H](Cc2ccncc2)NC1=O (stereo partly drawn) [SEQ ID NO. 87] (cyclo([4Pal][Pip(5R-OH)][Trp(1-CH2COOH)][dPro(4S-NH2)]N[Phe(4-COOH)][Trp(7-CN)][αMeS][Phe(4-CONH2)][X32][Sar][Trp(βS-Me,7-OMe)][X1][Nle])) | – | – | 0.7 | > 1000 | 0.02
